The record followed here is PMC9370035, “Identification of 3-Oxindole Derivatives as Small Molecule HIV-1 Inhibitors Targeting Tat-Mediated Viral Transcription” (Molecules, 2022).

Series [1] has as its system HIV-1NL4-3. The series can be described thus: HIV-1 replication assay (p24 […]) in A3.01 T cell line. It counts as cell-based. The following applies: A3.01 cells, HIV-1NL4-3 MOI 0.1, 1.5 μM, 72 h. How it is done:
(§1) TZM-bl cells (also referred as JC53BL-13) expressing human CD4, CXCR4, and CCR5 in order to facilitate HIV-1 infection, which contain the firefly luciferase (F-Luc) gene under the control of HIV-1 long terminal repeat (LTR) promoter was used to determine inhibitory effect of the compounds on HIV-1 infection, as described previously with minor modifications. In brief, 1 × 10^4 cells were cultured in 96-well plates for 24 h and then treated with compounds at a final concentration of 3 μM (Figure 1A) or with 1:2 serially diluted compounds at concentrations ranging from 0 to 25 μM (dose-response assay; Figure 1B and Table 2). Without replacement of a culture medium, the cells were then infected with the HIV-1NL4-3 strain at a multiplicity of infection (MOI) of 1 to determine the exact inhibitory effect of compounds on a single round infection. After 48 h, the inhibitory effect of the compounds was determined using a Bright Glo luciferase assay kit (Promega). The infectivity data are presented as a percentage relative to the DMSO control (vehicle). The inhibitory effects of the compounds on viral replication were determined with some minor modifications, as described previously. In brief, 5 × 10^4 cells/ well of A3.01 cells were infected with HIV-1NL4-3 at an MOI of 0.1 with the spinoculation at 300 g for 2 h at 25 °C. PBMCs were pre-activated with phytohemagglutinin M (PHA-M) for 3 days. The pre-activated 4 × 10^5 of PBMCs were washed with fresh media to remove excess PHA-M and then infected with HIV-1NL4-3 or HIV-1AD8 as that of A3.01 infection. After infection, the infectious media were replaced with fresh media (supplemented with international 10 units (IU)/mL of IL-2 for PBMCs containing 1.5 μM of compounds. At 72 h after infection, the inhibitory effect of the compounds on viral replication was determined by measuring the amount of p24, an HIV capsid protein, using an HIV-1 p24 […]™ kit (PerkinElmer, Waltham, MA, USA). Cell viability was determined by using the resazurin-based PrestoBlue™ cell viability reagent (Thermo Fisher Scientific, Waltham, MA, USA) according to the manufacturer’s protocols.

For series [2], the system named is HIV-1NL4-3. As to the kind of experiment: HIV-1 replication assay (p24 […]) in PBMCs, CXCR4 tropic strain. It counts as cell-based. The following applies: HIV-1NL4-3 MOI 0.1, 1.5 μM, 72 h. How it is done:
as §1

Series [3] relates to HIV-1NL4-3. The series can be described thus: HIV-1 infectivity assay in TZM-bl cells (F-Luc under HIV-1 LTR). Type of series: cell-based. Conditions: for inhibition at 3 µM / IC50: Human immunodeficiency virus 1, NL43, TZM-bl; for inhibition at 3 µM: 48 h, read-out: Inhibition of HIV-1 Infectivity (%), TZM-bl cells, 3 μM, HIV-1 NL4-3 at MOI of 1, 48 h; for Inhibition of HIV-1 Infectivity (%) / Inhibition ratio of HIV-1 infectivity, dose response: TZM-bl cells; for Inhibition of HIV-1 Infectivity (%): 3 μM, HIV-1 NL4-3 at MOI of 1, 48 h; for Inhibition ratio of HIV-1 infectivity, dose response: HIV-1NL4-3, up to a concentration of 25 μM; for IC50: read-out: IC50 (inhibition of HIV-1 infection). From the text: TZM-bl cells (also referred as JC53BL-13) expressing human CD4, CXCR4, and CCR5 in order to facilitate HIV-1 infection, which contain the firefly luciferase (F-Luc) gene under the control of HIV-1 long terminal repeat (LTR) promoter was used to determine inhibitory effect of the compounds on HIV-1 infection, as described previously with minor modifications. […] Without replacement of a culture medium, the cells were then infected with the HIV-1NL4-3 strain at a multiplicity of infection (MOI) of 1 to determine the exact inhibitory effect of compounds on a single round infection. After 48 h, the inhibitory effect of the compounds was determined using a Bright Glo luciferase assay kit (Promega). The infectivity data are presented as a percentage relative to the DMSO control (vehicle). The inhibitory effects of the compounds on viral replication were determined with some minor modifications, as described previously. […] PBMCs were pre-activated with phytohemagglutinin M (PHA-M) for 3 days. The pre-activated 4 × 10^5 of PBMCs were washed with fresh media to remove excess PHA-M and then infected with HIV-1NL4-3 or HIV-1AD8 as that of A3.01 infection.

A short description of series [4]: Cell viability (resazurin-based PrestoBlue) in parallel with infectivity assay. The following applies: human, TZM-bl cells; for viability at 48 h, 3 µM: with infection of HIV-1 NL4-3 at MOI of 1; for CC50 at 48 h: serial dilution starting from 100 μM, read-out: CC50 (concentration that reduces cell viability by 50%).
Series [5] relates to Tat-mediated HIV-1 transcription. As to the kind of experiment: microbe, parasite or virus in culture. The following applies: for Tat-induced transcriptional activity (F-Luc) / Inhibition of Tat-induced HIV-1 transcription, concentration response: bl-DTR cells; for Tat-induced transcriptional activity (F-Luc): 3 μM, doxycycline 50 ng/mL, 24 h; for Inhibition of Tat-induced HIV-1 transcription, concentration response: 0 to 25 μM. Type of series: cell-based. How it is done:
(§2) bl-DTR (TZM-bl-derived dual Tat reporter) cells derived from TZM-bl cells by insertion of two doxycycline-inducible lentiviral vector-expressing flag-tagged tat and Renilla-luciferase (R-Luc) genes were used to determine simultaneously both activities of Tat-mediated HIV-1 transcription and general cellular transcription, as described previously. Determination of the inhibitory effect of the compounds on Tat-mediated transcription was performed as described previously. In brief, 1 × 10^4 of bl-DTR cells cultured in 96-well plates were treated with compounds at a final concentration of 3 μM (Figure 3C) or with 1:2 serially diluted compounds at concentrations ranging from 0 to 25 μM (Figure 4 and Table 3). Subsequently, doxycycline was treated at a final concentration of 50 ng/mL to induce Tat-mediated F-Luc and R-Luc. At 24 h after treatment, the activities of F-Luc and R-Luc were determined by using a Dual-Glo™ luciferase assay system (Promega, Madison, WI, USA) according to the manufacturer’s protocols. The data are presented as a percentage relative to the DMSO control (vehicle) in the presence of doxycycline, and the experiment was performed in triplicate.

For series [6], the system named is general cellular transcription. The series can be described thus: R-Luc activity in bl-DTR cells (general cellular transcription). The following applies: high dosages (12.5 μM and 25 μM). It counts as cell-based. How it is done:
as §2

In another series the target is T1, HIV-1 integrase (Human immunodeficiency virus type 1 group M subtype B, UniProt P04585).
T1 construct: purchased XpressBio, Frederick, MD, USA
The series can be described thus: HIV-1 integrase assay kit. Conditions: 10 μM. It counts as biochemical. How it is done: The integrase activity was determined using an HIV-1 integrase assay kit (XpressBio, Frederick, MD, USA), according to the manufacturer’s protocols. In brief, a 96-well plate coated with donor substrate (DS) DNA was blocked with blocking buffer for 30 min at 37 °C. One hundred μL of HIV-1 integrase diluted with 1:300 onto reaction buffer was added to the plate, and the plate was then incubated for 30 min at 37 °C. Subsequently, 50 μL of compounds were added to the plate at final concentrations of 10 and 20 μM. At 5 min after addition of compounds, 50 μL of target substrate DNA diluted at 1:100 was added to the plate and incubated for 30 min at 37 °C. The plate was washed and then incubated with 100 μL of horse radish peroxidase antibody solution for 30 min at 37 °C. Integrase activity was assessed by measuring the peroxidase activity reacted with 3,3′,5,5′-tetramethylbenzidine substrate at optical density […]. The experiment was performed in triplicate.

The next series concerns TZM-bl cells. As to the kind of experiment: Cell viability (resazurin-based PrestoBlue) in parallel with infectivity assay. The following applies: 3 μM, with infection of HIV-1 NL4-3 at MOI of 1.

As for `COC(=O)C1(C/C=C/Cl)Nc2ccc(OC)cc2C1=O` (stereo not drawn) [Compound 6b, Methyl (E)-2-(3-chloroallyl)-5-methoxy-3-oxindole-2-carboxylate], the melting point is greater than 300 °C. In the series on HIV-1NL4-3 [1], the “Inhibitory effect on viral replication (p24)” value (“Inhibitory effect” for short) is reported as “no inhibition”. For the same compound, the “Inhibitory effect” value in the series with HIV-1NL4-3 [2] is listed as “no inhibition”. Also, in the series with HIV-1NL4-3 [3], the inhibition at 3 µM is 0.55 ± 4.34%. For the same compound, the viability at 48 h, 3 µM in series [4] was 99.6 ± 14.2%.
With `CC[C@H](CO)Nc1nc(NCc2ccccc2)c2ncn(C(C)C)c2n1` [seliciclib, Seliciclib, reference compound], the “Tat-induced transcriptional activity (F-Luc)” value in [5] was “specific inhibition”. For the same compound, in series [6], the R-Luc activity result is “decrease in R-Luc activity”.
Consider `C[C@@H]1CCO[C@H]2Cn3cc(C(=O)NCc4ccc(F)cc4F)c(=O)c(O)c3C(=O)N12` [DOL, dolutegravir], for which the “Inhibition of integrase activity” value on HIV-1 integrase is recorded as “inhibited”.
`CCCC1(C(=O)OC)Nc2ccc(OC)cc2C1=O` (stereo not drawn) [Compound 6c, Methyl 5-methoxy-3-oxo-2-propylindoline-2-carboxylate] gave a melting point of 117 to 118 °C. Further, the inhibition at 3 µM in the series on HIV-1NL4-3 [3] turned out to be 16.2 ± 5.52%. For the same compound, the viability at 48 h, 3 µM in series [4] amounted to 92.7 ± 5.77%.
Consider “Methyl (E)-2-(3-chloroallyl)-5-methyl-3-oxindole-2-carboxylate [Compound 6d]”, for which, in series [5], the “Inhibition of Tat-induced HIV-1 transcription, concentration response” value (“Inhibition … concentration response” below) is “did not inhibit”. Moreover, the “Inhibition of HIV-1 Infectivity (%)” value in the series with HIV-1NL4-3 [3] amounted to 0.00 ± 10.66%. In addition, in the series on TZM-bl cells, the “Cell Viability (%)” value is 96.96 ± 9.15%.
With `C=CCC1(C(=O)OC)Nc2cc(C)cc(C)c2C1=O` (stereo not drawn) [Compound 6h, Methyl 2-allyl-4,6-dimethyl-3-oxindole-2-carboxylate], the melting point is 147 °C. Moreover, in the series on HIV-1NL4-3 [1], the “Inhibitory effect” value was “no inhibition”. Also, the “Inhibitory effect” value with HIV-1NL4-3 [2] is on record as “no inhibition”. In addition, in the series on HIV-1NL4-3 [3], the inhibition at 3 µM was 23.6 ± 4.46% and the “Inhibition ratio of HIV-1 infectivity, dose response” value (shortened to “Inhibition ratio”) is recorded as “did not show further increased inhibitory effect”. The viability at 48 h, 3 µM in [4] was determined as 107 ± 4.73%.
The compound `COC(=O)c1[nH]c2ccc(OC)cc2c1OC/C=C/Cl` [Compound 7b, methyl (e)-3-((3-chloroallyl)oxy)-5-methoxy-1h-indole-2-carboxylate] showed a melting point greater than 300 °C. In [5], the “Inhibition … concentration response” value was “do not affect”. In addition, in the series on HIV-1NL4-3 [3], the inhibition at 3 µM is roughly 20% and the “Inhibition ratio” value is given as roughly 50%. The viability at 48 h, 3 µM in series [4] turned out to be 110 ± 4.96%.
`CCCC1(C(=O)OC)Nc2cc(C)cc(C)c2C1=O` (stereo not drawn) [Compound 6i, Methyl 4,6-dimethyl-3-oxo-2-propylindoline-2-carboxylate] gave a melting point of 132 to 133 °C. For the same compound, the “Inhibitory effect” value in the series with HIV-1NL4-3 [1] is on record as “no inhibition”. Also, the “Inhibitory effect” value in the series with HIV-1NL4-3 [2] is “no inhibition”. Besides, the inhibition at 3 µM in the series with HIV-1NL4-3 [3] came out at 9.15 ± 0.96%. In addition, the viability at 48 h, 3 µM in series [4] came out at 99.4 ± 8.83%.
As to `Cc1nnc(C(=O)NC(C)(C)c2nc(C(=O)NCc3ccc(F)cc3)c(O)c(=O)n2C)o1` [RAL, raltegravir], the “Inhibition of integrase activity” value at HIV-1 integrase is “inhibited”.
Take `Cc1cn([C@H]2C[C@H](N=[N+]=[N-])[C@@H](CO)O2)c(=O)[nH]c1=O` [AZT, azidothymidine, reference compound]: in the series on HIV-1NL4-3 [3], the inhibition at 3 µM came out at 99.65 ± 0.048% and the concentration for half-maximal inhibition (IC50) was found to be 0.079 ± 0.0237 µM. For the same compound, in [4], the viability at 48 h, 3 µM worked out at 94.8 ± 7.21% and the CC50 at 48 h was greater than 100 µM.
For the compound `CCOC(=O)c1[nH]c2cccc(C)c2c1OC/C=C/Cl` [Compound 7a, ethyl (e)-3-((3-chloroallyl)oxy)-4-methyl-1h-indole-2-carboxylate], the melting point worked out at 226 °C. Further, in series [5], the “Inhibition … concentration response” value is recorded as “do not affect”. For the same compound, in the series with HIV-1NL4-3 [3], the inhibition at 3 µM is roughly 20% and the “Inhibition ratio” value is roughly 50%. In [4], the viability at 48 h, 3 µM was found to be 117 ± 2.7%.
On to `CC(C)[C@]12O[C@H]1[C@@H]1O[C@]13[C@]1(O[C@H]1C[C@H]1C4=C(CC[C@@]13C)C(=O)OC4)[C@@H]2O` [triptolide, reference compound], for which the “Tat-induced transcriptional activity (F-Luc)” value in series [5] is reported as “specific inhibition”.
Take `CCOC(=O)C1(C/C=C/Cl)Nc2cccc(C)c2C1=O` (stereo not drawn) [Compound 6a, Ethyl (E)-2-(3-chloroallyl)-4-methyl-3-oxindole-2-carboxylate]: the melting point is greater than 300 °C. In addition, in series [5] (Human immunodeficiency virus 1, 24 h, read-out: IC50 (inhibition of Tat-mediated HIV-1 transcription)), the IC50 amounted to 9.53 ± 0.48 µM. Further, the “Inhibitory effect” value with HIV-1NL4-3 [1] was “no inhibition”. For the same compound, the “Inhibitory effect” value with HIV-1NL4-3 [2] is “no inhibition”. Moreover, in the series on HIV-1NL4-3 [3], the inhibition at 3 µM was roughly 20% and the IC50 was found to be 13.7 ± 2.55 µM. Besides, in series [4], the viability at 48 h, 3 µM was 106 ± 9.33% and the CC50 at 48 h amounted to 87.4 ± 12.7 µM.
With “Methyl (E)-2-(3-chloroallyl)-3-oxindole-2-carboxylate [Compound 6e]”, in the series on HIV-1NL4-3 [3], the “Inhibition of HIV-1 Infectivity (%)” value amounted to 11.49 ± 5.66%. Moreover, the “Cell Viability (%)” value in the series with TZM-bl cells turned out to be 95.66 ± 7.32%.
